# System: production of nitric oxide (NO) by murine macrophages (RAW 264.7 cell line) activated by lipopolysaccharide (LPS)
# Assay: Nitric oxide (NO) release by LPS-activated RAW 264.7 macrophages, Griess Reagent System
# Format: cell-based
# Protocol: In addition, positive control cells were treated with 20 μM dexamethasone.
Compound,"NO inhibition by carvacrol alone (carvacrol only 0.05%, 0.1%, 0.15% solutions, dilutions 1:500,000, 1:200,000, 1:100,000)","NO inhibition by p-cymene alone (p-cymene only 0.1%, 0.25%, 0.5%, 0.75% solutions, final dilution 1:200,000)"
Cc1ccc(C(C)C)cc1O [carvacrol],None of the carvacrol-only dilutions caused any NO inhibition,
Cc1ccc(C(C)C)cc1 [p-cymene],,None of the p-cymene-only dilutions caused any NO inhibition

# — US11883455B2, “Nigella sativa oil composition” (N.S. OILS LTD., priority 2018, dated 2024)
